Inhibition data for 57 compounds are collected here from publication PMC7489219 (Molecular Brain, 2020).

Counter-ions that a name gives are not always drawn.

In this test the test system is T1, primary mouse cortical neurons.
T1 construct: primary cortical neurons, DIV 10
Put plainly: cells. Also noted: Protection from NMDA-induced (30 uM, 10 min) neuronal death; Hoechst nuclear morphology by automated microscopy. To be noted: Cortical neurone, 20 h, read-out: % inhibition, inhibition of NMDA-induced cell death (protection score), 30 min pre-treatment. Put shortly: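 On DIV 10, primary mouse cortical neurons were given compound at 10 μM for 30 min at 37 °C, then 30 μM NMDA for 10 min, washed, and kept 20 h with compound. Dead cells were scored by nuclear morphology, and % protection was derived from survival relative to vehicle + NMDA and untreated controls.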

For the compound `C[C@H]1[C@H](C)CC[C@]2(C(=O)O)CC[C@]3(C)C(=CC[C@@H]4[C@@]5(C)C[C@@H](O)[C@H](O)[C@@](C)(CO)[C@@H]5CC[C@]43C)[C@H]12` [Asiatic acid], the inhibition at 10 µM is -2.44%.

Regarding `CN1c2ccccc2C(=O)N2CCc3c([nH]c4ccccc34)[C@H]21` [Evodiamine (Isoevodiamine)], the inhibition at 10 µM was 0.0207%.

For `Cc1cc(NS(=O)(=O)c2ccc(N)cc2)no1` [Sulfamethoxazole], the inhibition at 10 µM is -1.59%.

Consider `Cc1ccc(-c2cc(C(F)(F)F)nn2-c2ccc(S(N)(=O)=O)cc2)cc1` [Celecoxib], for which the inhibition at 10 µM is -7.05%.

Regarding `COc1ccc(-c2nc3cc(C4=NNC(=O)CC4C)ccc3[nH]2)cc1` (stereo not drawn) [Pimobendan (Vetmedin)], the inhibition at 10 µM was -0.217%.

With `CCCC(=O)O` [Sodium butyrate], the inhibition at 10 µM is 0.412%.

Regarding `CN(C)CCc1ccc(O)cc1` [Hordenine], the inhibition at 10 µM was -0.889%.

In the case of `CO/N=C(\C(=O)N[C@@H]1C(=O)N2C(C(=O)OCOC(=O)C(C)(C)C)=C(/C=C\c3scnc3C)CS[C@H]12)c1csc(N)n1` [Cefditoren pivoxil], the inhibition at 10 µM is 8.16%.

As to `CC[C@H](/C=C/[C@@H](C)[C@H]1CC[C@H]2[C@@H]3CC=C4C[C@@H](O)CC[C@]4(C)[C@H]3CC[C@]12C)C(C)C` [Stigmasterol (Stigmasterin)], the inhibition at 10 µM is 4.26%.

Regarding `CCCCCCCCCC(=O)N[C@@H](Cc1c[nH]c2ccccc12)C(=O)N[C@H](CC(N)=O)C(=O)N[C@@H](CC(=O)O)C(=O)N[C@@H]1C(=O)NCC(=O)N[C@@H](CCCN)C(=O)N[C@@H](CC(=O)O)C(=O)N[C@H](C)C(=O)N[C@@H](CC(=O)O)C(=O)NCC(=O)N[C@H](CO)C(=O)N[C@@H]([C@H](C)CC(=O)O)C(=O)N[C@@H](CC(=O)c2ccccc2N)C(=O)O[C@@H]1C` [Daptomycin], the inhibition at 10 µM was -3.03%.

On to `CCCc1nc2c(C)cc(-c3nc4ccccc4n3C)cc2n1Cc1ccc(-c2ccccc2C(=O)O)cc1` [Telmisartan (Micardis)], for which the inhibition at 10 µM came to 0.71%.

Take `COc1cc([C@H]2Oc3ccc([C@H]4Oc5cc(O)cc(O)c5C(=O)[C@@H]4O)cc3O[C@@H]2CO)ccc1O` [Silymarin (Silybin B)]: the inhibition at 10 µM amounted to 10%.

In the case of `Cc1nnc(C(C)C)n1[C@@H]1C[C@H]2CC[C@@H](C1)N2CC[C@H](NC(=O)C1CCC(F)(F)CC1)c1ccccc1` [Maraviroc], the inhibition at 10 µM came to 2.4%.

For the compound `NC(=O)c1cn(Cc2c(F)cccc2F)nn1` [Rufinamide (Banzel)], the inhibition at 10 µM was -3.11%.

As for `CC(C)(C)C(=O)OCOP(=O)(COCCn1cnc2c(N)ncnc21)OCOC(=O)C(C)(C)C` [Adefovir Dipivoxil (Preveon, Hepsera)], the inhibition at 10 µM came out at 18.8%.

For `CO[C@H]1/C=C/O[C@@]2(C)Oc3c(C)c(O)c4c(O)c(c(/C=N/N5CCN(C6CCCC6)CC5)c(O)c4c3C2=O)NC(=O)/C(C)=C\C=C\[C@H](C)[C@H](O)[C@@H](C)[C@@H](O)[C@@H](C)[C@H](OC(C)=O)[C@@H]1C` [Rifapentine (Priftin)], the inhibition at 10 µM was found to be 9.26%.

With `Cc1nc2n(c(=O)c1CCN1CCC(c3noc4cc(F)ccc34)CC1)CCCC2` [Risperidone (Risperdal)], the inhibition at 10 µM came to 23.7%.

As for `OCCOCCN1CCN(C2=Nc3ccccc3Sc3ccccc32)CC1` [Quetiapine fumarate (Seroquel)], the inhibition at 10 µM turned out to be 0.552%.

In the case of `Cc1cc2c(s1)Nc1ccccc1N=C2N1CCN(C)CC1` [Olanzapine (Zyprexa)], the inhibition at 10 µM worked out at 12.7%.

As to `O=c1cc(-c2ccccc2)oc2cc(O)cc(O)c12` [Chrysin], the inhibition at 10 µM is -0.0506%.

Consider `COCCCOc1cc(C[C@@H](C[C@H](N)[C@@H](O)C[C@H](C(=O)NCC(C)(C)C(N)=O)C(C)C)C(C)C)ccc1OC` [Aliskiren hemifumarate], for which the inhibition at 10 µM was determined as 30.5%.

Turning to `c1coc(CNc2ncnc3[nH]cnc23)c1` [Kinetin (6-Furfuryladenine)], the inhibition at 10 µM was -0.453%.

Consider `CC(=O)O[C@H]1C[C@@H]2CC[C@@H]3[C@H](CC[C@@]4(C)[C@H]3C[C@H]([N+]3(C)CCCCC3)[C@@H]4OC(C)=O)[C@@]2(C)C[C@@H]1[N+]1(C)CCCCC1` [Pancuronium (Pavulon)], for which the inhibition at 10 µM is 7.54%.

With `COc1ccc2cccc(CCNC(C)=O)c2c1` [Agomelatine], the inhibition at 10 µM was -12.7%.

Turning to `CCCCC1=NC2(CCCC2)C(=O)N1Cc1ccc(-c2ccccc2-c2nnn[nH]2)cc1` [Irbesartan (Avapro)], the inhibition at 10 µM came to 0.237%.

For `C=C[C@H]1CN2CC[C@H]1C[C@H]2[C@H](O)c1ccnc2ccc(OC)cc12` [Quinine hydrochloride dihydrate], the inhibition at 10 µM was -0.947%.

On to `O=C1CCC[C@@H]2[C@H]3CCC[N@+]4([O-])CCC[C@@H](CN12)[C@@H]34` [Oxymatrine (Matrine N-oxide)], for which the inhibition at 10 µM is -1.44%.

Regarding `O=C(O)CCCc1c[nH]c2ccccc12` [3-Indolebutyric acid (IBA)], the inhibition at 10 µM is -1.77%.

As for `Cc1cccc(C)c1OCC(=O)N[C@@H](Cc1ccccc1)[C@@H](O)C[C@H](Cc1ccccc1)NC(=O)[C@H](C(C)C)N1CCCNC1=O` [Lopinavir (ABT-378)], the inhibition at 10 µM was 1.09%.

Take `C[C@]12CC[C@@H]3c4ccc(O)cc4CC[C@H]3[C@@H]1CC[C@@H]2O` [Estradiol]: the inhibition at 10 µM was 4.78%.

On to `Nc1ncnc2c1ncn2[C@@H]1O[C@H](COP(=O)(O)OP(=O)(O)OP(=O)(O)O)[C@@H](O)[C@H]1O` [ATP (Adenosine-Triphosphate)], for which the inhibition at 10 µM came out at 0.248%.

In the case of `CN[C@@H](C)[C@H]1[C@H](O)C[C@@]2(C)[C@@H]3CC[C@H]4C(C)(C)[C@@H](NC)CC[C@@]45C[C@@]35CC[C@]12C` [Cyclovirobuxin D (Bebuxine)], the inhibition at 10 µM is 17.2%.

Regarding `CC(C)(C)NCC(O)c1ccc(O)c(CO)c1` (stereo not drawn) [Salbutamol sulfate (Albuterol)], the inhibition at 10 µM was -7.52%.

Take `COc1cc2c(cc1OC)[C@@H]1Cc3ccc(OC)c(OC)c3CN1CC2` [Rotundine]: the inhibition at 10 µM is -0.337%.

On to `CCC(=O)NCC[C@@H]1CCc2ccc3c(c21)CCO3` [Ramelteon (TAK-375)], for which the inhibition at 10 µM is -3.3%.

`Cn1c(CCCC(=O)O)nc2cc(N(CCCl)CCCl)ccc21` [Bendamustine HCL]: the inhibition at 10 µM amounted to 9.61%.

As to `O[C@@H](CNC[C@H](O)[C@H]1CCc2cc(F)ccc2O1)[C@@H]1CCc2cc(F)ccc2O1` [Nebivolol (Bystolic)], the inhibition at 10 µM was -2.64%.

Consider `CCOC(=O)[C@H](CCc1ccccc1)N[C@H]1CCc2ccccc2N(CC(=O)O)C1=O` [Benazepril hydrochloride], for which the inhibition at 10 µM was -11.1%.

Take `COc1ccc(C(CN(C)C)C2(O)CCCCC2)cc1` (stereo not drawn) [Venlafaxine]: the inhibition at 10 µM was found to be 22.6%.

As to `CC(C(=O)O)c1cccc(Oc2ccccc2)c1` (stereo not drawn) [Fenoprofen calcium], the inhibition at 10 µM was determined as 1.38%.

For the compound `O=c1[nH]c2ccccc2n1CCCN1CCC(n2c(=O)[nH]c3cc(Cl)ccc32)CC1` [Domperidone (Motilium)], the inhibition at 10 µM is -9.12%.

On to `CC[C@@]1([C@@H]2O[C@@H]([C@H]3O[C@@](O)(CO)[C@H](C)C[C@@H]3C)C[C@@H]2C)CC[C@H]([C@]2(C)CC[C@]3(C[C@H](O)[C@@H](C)[C@@H]([C@@H](C)[C@@H](OC)[C@H](C)C(=O)O)O3)O2)O1` [Monensin sodium salt (Coban)], for which the inhibition at 10 µM is 3.22%.

`O=C(O)c1cccnc1` [Niacin (Nicotinic acid)]: the inhibition at 10 µM was -0.509%.

On to `NC12CC3CC(CC(C3)C1)C2` [Amantadine hydrochloride (Symmetrel)], for which the inhibition at 10 µM was 1.41%.

As to `CN(C)CCCN1c2ccccc2CCc2ccc(Cl)cc21` [Clomipramine hydrochloride (Anafranil)], the inhibition at 10 µM is -0.839%.

For `CCOC(=O)N1CCC(=C2c3ccc(Cl)cc3CCc3cccnc32)CC1` [Loratadine], the inhibition at 10 µM was -11.1%.

On to `C[N+](C)(C)CC(O)CC(=O)[O-]` (racemic) [DL-Carnitine hydrochloride], for which the inhibition at 10 µM was 2.11%.

As for `CC(C)(C)NC(=O)[C@H]1CC[C@H]2[C@@H]3CC[C@H]4NC(=O)C=C[C@]4(C)[C@H]3CC[C@]12C` [Finasteride], the inhibition at 10 µM turned out to be 59.6%.

Consider `OCc1ccccc1O[C@@H]1O[C@H](CO)[C@@H](O)[C@H](O)[C@H]1O` [Salicin (Salicoside, Salicine)], for which the inhibition at 10 µM is -2.7%.

Turning to `Nc1ccn([C@@H]2O[C@H](CO)[C@@H](O)[C@@H]2O)c(=O)n1` [Cytarabine], the inhibition at 10 µM stood at 38.3%.

Consider `CC1Cc2ccccc2N1NC(=O)c1ccc(Cl)c(S(N)(=O)=O)c1` (stereo not drawn) [Indapamide (Lozol)], for which the inhibition at 10 µM is 0.426%.

`CC[C@H]1OC(=O)[C@H](C)[C@@H](O[C@H]2C[C@@](C)(OC)[C@@H](O)[C@H](C)O2)[C@H](C)[C@@H](O[C@@H]2O[C@H](C)C[C@H](N(C)C)[C@H]2O)[C@](C)(OC)C[C@@H](C)C(=O)[C@H](C)[C@@H](O)[C@]1(C)O` [Clarithromycin (Biaxin, Klacid)]: the inhibition at 10 µM was -1.54%.

As to `CC(C(=O)O)c1ccc(-c2ccccc2)c(F)c1` (stereo not drawn) [Flurbiprofen (Ansaid)], the inhibition at 10 µM is 14%.

Take `CC1(C)S[C@@H]2[C@H](NC(=O)[C@H](N)c3ccc(O)cc3)C(=O)N2[C@H]1C(=O)O` [Amoxicillin (Amox)]: the inhibition at 10 µM is -1.15%.

Consider `C[C@@H]1O[C@@H](OC[C@H]2O[C@@H](Oc3c(-c4ccc(O)c(O)c4)oc4cc(O)cc(O)c4c3=O)[C@H](O)[C@@H](O)[C@@H]2O)[C@H](O)[C@H](O)[C@H]1O` [Rutin (Rutoside)], for which the inhibition at 10 µM is -3.76%.

In the case of `c1ccc([C@H]2CN3CCSC3=N2)cc1` [Levamisole Hydrochloride (Ergamisol)], the inhibition at 10 µM turned out to be 19.8%.

Regarding `O=c1c(-c2ccc(O)cc2)coc2c([C@@H]3O[C@H](CO)[C@@H](O)[C@H](O)[C@H]3O)c(O)ccc12` [Puerarin (Kakonein)], the inhibition at 10 µM is -3.03%.
